The text below walks through data of ChEMBL document CHEMBL1201862, “PubChem BioAssay data set” (2004).

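Grown in 96-well plates, cells were treated for 48 hours with each compound at five concentrations. Insufficient inhibition: endpoint recorded as highest concentration tested. GI50: concentration for 50% inhibition of growth.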 Activity calls are given as the source filed them. Cut-off read from the data, not from the text of the source: active = GI50 up to about 1.1 µM and inactive = higher. A value given as a limit tells only on which side of the number the result lay.

Test systems include BT-549; CAKI-1; HOP-62; HOP-92; HT-29; MDA-MB-231; MDA-N; NCI-H23; NCI-H522; OVCAR-4; RPMI-8226; SF-295; SK-MEL-28; SNB-75; TK-10; UACC-257; COLO 205; Malme-3M; SNB-19; UACC-62.
What all share (experiment): NCI-60 cell line screen, 48 h

Consider `Cc1n[nH]c(=S)n1/N=C/c1ccc(-c2ccc(Cl)cc2)o1`, for which the GI50 is 11.3 µM (inactive) in the assay on BT-549; > 100 µM (inactive) with CAKI-1; 49.7 µM (inactive) in the assay with HOP-62; 69 µM (inactive) with HOP-92; > 100 µM (inactive) in the assay with HT-29; 73.5 µM (inactive) in the assay on MDA-MB-231. Further, the GI50 was > 100 µM (inactive) with MDA-N; 39.6 µM (inactive) in the assay with NCI-H23; > 100 µM (inactive) in the assay on NCI-H522; > 100 µM (inactive) in the assay with OVCAR-4; > 100 µM (inactive) in the assay with RPMI-8226; 67.8 µM (inactive) in the assay on SF-295. Moreover, the GI50 is > 100 µM (inactive) in the assay on SK-MEL-28, 31.9 µM (inactive) in the assay on SNB-75, 83.4 µM (inactive) with TK-10 and > 100 µM (inactive) in the assay on UACC-257.

On to `CN(C)CC(CN(C)C)c1ccccn1`, for which the GI50 in the assay on BT-549, in the assay on CAKI-1, in the assay on COLO 205, in the assay with HOP-62, in the assay with HOP-92 and in the assay on HT-29 was > 100 µM (inactive) each time. In addition, the GI50 with MDA-MB-231, with MDA-N, in the assay on Malme-3M, with NCI-H23, in the assay with NCI-H522 and with OVCAR-4 was > 100 µM (inactive) in each case. Besides, the GI50 with RPMI-8226, in the assay with SF-295, with SK-MEL-28, in the assay with SNB-19, with TK-10 and with UACC-257 was > 100 µM (inactive) in each case. Moreover, the GI50 with UACC-62 was > 100 µM (inactive).

With `CNC(=O)Nn1c(SC)nc2ccccc21`, the GI50 in the assay with BT-549, in the assay with CAKI-1, with COLO 205, with HOP-62, with HOP-92 and with HT-29 was > 100 µM (inactive) throughout. In addition, the GI50 in the assay on MDA-MB-231, with MDA-N, with Malme-3M, in the assay on NCI-H23, in the assay on NCI-H522 and in the assay with OVCAR-4 was > 100 µM (inactive) in each case. The GI50 in the assay on RPMI-8226, with SF-295, in the assay with SK-MEL-28, in the assay with SNB-19, in the assay on TK-10 and in the assay on UACC-257 was > 100 µM (inactive) in each case. For the same compound, in the assay on UACC-62, the GI50 is > 100 µM (inactive).

As to `Cn1c(=O)c2c(nc3n(CCCCl)c(=O)ccn23)n(C)c1=O`, the GI50 in the assay with BT-549, in the assay with CAKI-1, in the assay with COLO 205, with HOP-62, with HOP-92 and with HT-29 was > 100 µM (inactive) throughout. The GI50 in the assay on MDA-MB-231, in the assay on MDA-N, with NCI-H23, in the assay on NCI-H522, in the assay on OVCAR-4 and in the assay with RPMI-8226 was > 100 µM (inactive) throughout. For the same compound, the GI50 in the assay on SF-295, with SK-MEL-28, in the assay on SNB-19, in the assay on SNB-75, in the assay with TK-10 and with UACC-257 was > 100 µM (inactive) each time. Moreover, the GI50 with UACC-62 was > 100 µM (inactive).

With `O=C1OC(c2ccccc2)=NC1c1ccccc1` (stereo not drawn), the GI50 with BT-549, in the assay on CAKI-1, in the assay on COLO 205, with HOP-62, with HOP-92 and in the assay on HT-29 was > 100 µM (inactive) each time. The GI50 in the assay with MDA-MB-231, with MDA-N, in the assay on NCI-H23, with NCI-H522, with OVCAR-4 and with RPMI-8226 was > 100 µM (inactive) each time. Besides, the GI50 in the assay on SF-295, in the assay with SK-MEL-28, in the assay on SNB-19, with SNB-75, in the assay on TK-10 and in the assay on UACC-257 was > 100 µM (inactive) each time. Also, the GI50 in the assay with UACC-62 is > 100 µM (inactive).

For `O=C(CCc1cc(O)cc(O)c1)NCCc1cc(O)cc(O)c1`, the GI50 with BT-549, with CAKI-1, in the assay on COLO 205, with HOP-62, in the assay with HOP-92 and in the assay with HT-29 was > 100 µM (inactive) in each case. Also, the GI50 with MDA-MB-231, in the assay on MDA-N, in the assay on NCI-H23, in the assay with NCI-H522, with RPMI-8226 and in the assay with SF-295 was > 100 µM (inactive) throughout. For the same compound, the GI50 in the assay with SK-MEL-28, in the assay with SNB-19, with SNB-75, in the assay on TK-10, with UACC-257 and in the assay with UACC-62 was > 100 µM (inactive) in each case.

Regarding `CN1c2ccccc2C2c3c(O)ccc(O)c3C=C([N+](=O)[O-])C21` (stereo not drawn), the GI50 with BT-549 was 5.36 µM (inactive); in the assay on CAKI-1, 2.13 µM (inactive); with COLO 205 it was 0.653 µM (active); in the assay on HOP-62 it was 2.11 µM (inactive); with HOP-92, 2.28 µM (inactive); in the assay on HT-29 it was 0.136 µM (active). Besides, the GI50 in the assay with MDA-MB-231 was 0.656 µM (active); with MDA-N, 0.69 µM (active); in the assay on NCI-H23, 1.69 µM (inactive); with NCI-H522, 0.0621 µM (active); with OVCAR-4, 1.21 µM (inactive); with RPMI-8226 it was 1.11 µM (active). Besides, the GI50 with SF-295 is 2.53 µM (inactive); in the assay with SK-MEL-28, 2.03 µM (inactive); in the assay on SNB-19, 0.619 µM (active); with SNB-75, 4.7 µM (inactive); with TK-10 it was 11.2 µM (inactive); in the assay with UACC-257, 0.19 µM (active). In addition, the GI50 in the assay with UACC-62 was 0.957 µM (active).

Regarding `COc1ccc2c(CC(=O)O)cc(=O)oc2c1`, the GI50 is > 100 µM (inactive) in the assay with BT-549; > 100 µM (inactive) in the assay with CAKI-1; > 100 µM (inactive) with COLO 205; > 100 µM (inactive) with HOP-62; 86.1 µM (inactive) in the assay on HOP-92; > 100 µM (inactive) in the assay on HT-29. Further, the GI50 in the assay on MDA-MB-231 is > 100 µM (inactive); in the assay on MDA-N, > 100 µM (inactive); with Malme-3M, 54.8 µM (inactive); with NCI-H23, > 100 µM (inactive); with NCI-H522, > 100 µM (inactive); in the assay with OVCAR-4, > 100 µM (inactive). Also, the GI50 in the assay on RPMI-8226, in the assay on SF-295, in the assay on SK-MEL-28, with SNB-19, in the assay on TK-10 and in the assay on UACC-257 was > 100 µM (inactive) in each case. Further, in the assay on UACC-62, the GI50 is > 100 µM (inactive).
